What follows are compounds tested against LRRK2(G2019S mutation, GST-LRRK2(amino acids 970-2527)) (Homo sapiens (Human), UniProt Q5S007, G2019S) (assay: LRRK2 Km ATP LanthaScreen Assay). Details: Km ATP (184 μM ATP solution), G2019S LRRK2, mean IC50.
Sequence of LRRK2(G2019S mutation, GST-LRRK2(amino acids 970-2527)) (Q5S007 970-2527 G2019S): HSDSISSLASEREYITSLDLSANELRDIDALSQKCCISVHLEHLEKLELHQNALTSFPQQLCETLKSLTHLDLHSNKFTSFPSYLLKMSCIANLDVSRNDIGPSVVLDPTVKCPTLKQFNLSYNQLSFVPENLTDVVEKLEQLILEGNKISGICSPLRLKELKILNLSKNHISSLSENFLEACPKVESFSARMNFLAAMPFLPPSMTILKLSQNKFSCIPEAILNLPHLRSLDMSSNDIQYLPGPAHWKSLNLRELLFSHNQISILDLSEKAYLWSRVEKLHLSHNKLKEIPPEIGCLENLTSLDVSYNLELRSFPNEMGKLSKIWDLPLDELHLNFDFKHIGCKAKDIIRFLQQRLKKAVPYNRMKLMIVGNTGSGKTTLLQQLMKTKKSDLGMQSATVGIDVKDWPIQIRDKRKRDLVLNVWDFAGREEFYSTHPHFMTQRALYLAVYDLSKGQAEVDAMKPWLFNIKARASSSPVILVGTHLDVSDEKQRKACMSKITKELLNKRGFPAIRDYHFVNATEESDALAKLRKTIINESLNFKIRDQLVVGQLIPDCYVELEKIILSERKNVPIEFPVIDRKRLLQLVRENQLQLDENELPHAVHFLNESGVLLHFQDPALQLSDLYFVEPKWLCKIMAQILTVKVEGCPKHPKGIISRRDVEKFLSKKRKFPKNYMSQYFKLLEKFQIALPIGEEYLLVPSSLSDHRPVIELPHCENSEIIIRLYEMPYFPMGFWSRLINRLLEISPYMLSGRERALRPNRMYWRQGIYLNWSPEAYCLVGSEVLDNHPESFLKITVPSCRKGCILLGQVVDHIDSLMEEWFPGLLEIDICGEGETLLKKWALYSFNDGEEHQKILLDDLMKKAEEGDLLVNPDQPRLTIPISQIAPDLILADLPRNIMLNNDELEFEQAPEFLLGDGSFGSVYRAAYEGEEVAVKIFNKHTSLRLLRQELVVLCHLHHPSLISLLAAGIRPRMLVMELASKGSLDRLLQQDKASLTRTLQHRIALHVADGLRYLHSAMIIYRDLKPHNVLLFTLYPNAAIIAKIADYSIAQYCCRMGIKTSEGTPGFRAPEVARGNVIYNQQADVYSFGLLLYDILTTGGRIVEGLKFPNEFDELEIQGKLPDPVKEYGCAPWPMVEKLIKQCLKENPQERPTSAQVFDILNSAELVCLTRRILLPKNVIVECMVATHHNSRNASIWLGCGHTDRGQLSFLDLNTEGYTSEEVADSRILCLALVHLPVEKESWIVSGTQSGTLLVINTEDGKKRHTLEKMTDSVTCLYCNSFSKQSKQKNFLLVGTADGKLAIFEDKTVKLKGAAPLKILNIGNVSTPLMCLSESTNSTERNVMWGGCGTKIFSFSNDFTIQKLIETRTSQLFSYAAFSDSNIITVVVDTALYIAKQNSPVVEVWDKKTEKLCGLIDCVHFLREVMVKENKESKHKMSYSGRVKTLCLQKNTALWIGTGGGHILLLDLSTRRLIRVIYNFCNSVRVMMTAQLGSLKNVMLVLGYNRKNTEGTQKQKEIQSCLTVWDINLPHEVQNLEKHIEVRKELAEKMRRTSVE
Type: biochemical
Protocol: Unless otherwise noted, all LRRK2 IC50 data presented in tables refers to the LRRK2 Km ATP LanthaScreen™ Assay that is described in the Biological Assay section.
The data presented for the 5 mM and Km ATP LanthaScreen™ Assay represents mean IC50 values based on several test results and may have reasonable. deviations depending on the specific conditions and reagents used. Reagents for the LRRK2 5 mM and Km ATP LanthaScreen™ Assay were purchased from Life Technologies Corporation.
LRRK2 Km ATP LanthaScreen™ Assay
a) 400 nl of a 1:2.15 serial dilution of test compound(98 μM top assay concentration) is spotted via Labcyte Echo to certain wells in a 384 well black, untreated plate. Control wells contain 400 nl of either DMSO or 400 nl of a known inhibitor in DMSO.
b) 10 μl of a 2.5 nM LRRK2(G2019S mutation, GST-LRRK2(amino acids 970-2527)) enzyme solution in 1× assay buffer(50 mM Tris pH 8.5, 10 mM MgCl2, 0.01% Brij-35, 1 mM EGTA, 2 mM DTT, 0.05 mM NaVO4) is added to all wells.
c) A 30 minute room temperature incubation is followed by addition of 10 μl of 800 nM fluorescein labeled LRRKtide peptide substrate and 184 μM ATP solution in 1× assay buffer to all wells.
d) After a 60 minute room temperature incubation, 20 μl of TR-FRET Dilution Buffer(Invitrogen PV3756B) containing 4 nM Tb-labeled anti-phospho LRRKtide antibody and 20 mM EDTA is added to all wells.
e) Plates are incubated at room temperature for 1 hour and read on an Envision™ multi-mode plate reader with LanthaScreen™ settings. Results are analysed using Assay Data Analyzer.
Compound `CC(C)Oc1ccc2[nH]nc(-c3cc(N4CCc5oc(C6CC6)nc5C4)ncn3)c2c1` [Example J14] has an IC50 of 30.1 nM. In the case of `CC(C)Oc1ccc2[nH]nc(-c3cc(N4CCC(F)(F)CC4)ncn3)c2c1` [Example J15], the IC50 is reported as 20.2 nM. `CC(C)Oc1ccc2[nH]nc(-c3cc(N4CC(S(C)(=O)=O)C4)ncn3)c2c1` [Example J16] was tested, and the IC50 was 13.3 nM. For `CC(C)Oc1ccc2[nH]nc(-c3cc(N4CCN(C)CC4)ncn3)c2c1` [Example J17], the IC50 was 5.4 nM. `CC(C)Oc1ccc2[nH]nc(-c3cc(N4CC(F)(F)C4)ncn3)c2c1` [Example J18] was tested, and the IC50 was 24.3 nM. Compound `CCc1nnc2n1CCN(c1cc(-c3n[nH]c4ccc(OC(C)C)cc34)ncn1)C2` [Example J19] has an IC50 of 8.6 nM. Compound `CC(C)Oc1ccc2[nH]nc(-c3cc(N4CCc5nc(C6CC6)oc5C4)ncn3)c2c1` [Example J20] has an IC50 of 43 nM. `CC(C)Oc1ccc2[nH]nc(-c3cc(N4CCN(c5nnc(C6CC6)o5)CC4)ncn3)c2c1` [Example J21] gave an IC50 of 14 nM. Work on `Cc1noc(C2CN(c3cc(-c4n[nH]c5ccc(OC(C)C)cc45)ncn3)C2)n1` [Example J22] yielded an IC50 of 9.3 nM. Work on `CC(C)Oc1ccc2[nH]nc(-c3cc(N4CC(n5cnnc5)C4)ncn3)c2c1` [Example J23] yielded an IC50 of 20.1 nM. `CC(C)Oc1ccc2[nH]nc(-c3cc(N4CCN(c5ccncn5)CC4)ncn3)c2c1` [Example J24] gave an IC50 of 15.8 nM. Work on `CC(C)Oc1ccc2[nH]nc(-c3cc(N4CC[C@@H](F)C4)ncn3)c2c1` [Example J25] yielded an IC50 of 8.7 nM. `CC(C)Oc1ccc2[nH]nc(-c3cc(N4CC[C@H](F)C4)ncn3)c2c1` [Example J26] was tested, and the IC50 was 9.5 nM. For `CC(C)NC(=O)CN1CCN(c2cc(-c3n[nH]c4ccc(OC(C)C)cc34)ncn2)CC1` [Example K1], the IC50 was 5.1 nM. `CC(C)Oc1ccc2[nH]nc(-c3cc(N4CCN(C(=O)c5ccco5)CC4)ncn3)c2c1` [Example K2] showed an IC50 of 8.7 nM. For `CCN1CCN(c2cc(-c3n[nH]c4ccc(OC(C)C)cc34)ncn2)CC1` [Example K3], the IC50 was 6 nM. For `COC1CCCN(c2cc(-c3n[nH]c4ccc(OC(C)C)cc34)ncn2)C1` (stereo not shown) [Example K4], the IC50 was 12.7 nM. `CC(=O)N1CCN(c2cc(-c3n[nH]c4ccc(OC(C)C)cc34)ncn2)CC1` [Example K5] was tested, and the IC50 was 11.2 nM. With `CC(C)Oc1ccc2[nH]nc(-c3cc(N4CCN(C(=O)C5CCCO5)CC4)ncn3)c2c1` (stereo not shown) [Example K6] the IC50 was 58.1 nM. `CC(C)Oc1ccc2[nH]nc(-c3cc(N4CCN(c5ncccn5)CC4)ncn3)c2c1` [Example K7] gave an IC50 of 11.8 nM. For `CC(C)Oc1ccc2[nH]nc(-c3cc(N4CCC(C#N)CC4)ncn3)c2c1` [Example K8], the IC50 was 7.2 nM. `COC(=O)N1CCN(c2cc(-c3n[nH]c4ccc(OC(C)C)cc34)ncn2)CC1` [Example K9] was tested, and the IC50 was 10.2 nM. In the case of `CC(C)Oc1ccc2[nH]nc(-c3cc(N4CCC(n5ccnc5)C4)ncn3)c2c1` (stereo not shown) [Example K11], the IC50 is reported as 11.3 nM. In the case of `CC(C)Oc1ccc2[nH]nc(-c3cc(N4CCC(O)(C(F)(F)F)CC4)ncn3)c2c1` [Example K12], the IC50 is reported as 10.5 nM. With `CC(C)Oc1ccc2[nH]nc(-c3cc(N4CCCC(C(C)(C)O)C4)ncn3)c2c1` (stereo not shown) [Example K13] the IC50 was 6.9 nM. Work on `CC(C)Oc1ccc2[nH]nc(-c3cc(N4CCC(n5cccn5)CC4)ncn3)c2c1` [Example K14] yielded an IC50 of 15.3 nM. With `CC(C)Oc1ccc2[nH]nc(-c3cc(N4CCC(CF)C4)ncn3)c2c1` (stereo not shown) [Example K15] the IC50 was 6.9 nM. `CC(C)Oc1ccc2[nH]nc(-c3cc(N4CCN(Cc5ccncc5)CC4)ncn3)c2c1` [Example K16] showed an IC50 of 8.2 nM. `CC(C)Oc1ccc2[nH]nc(-c3cc(N4CCN(c5cnn(C)c5)CC4)ncn3)c2c1` [Example K17] was tested, and the IC50 was 5.4 nM. In the case of `CC(C)Oc1ccc2[nH]nc(-c3cc(N4CCC(C(C)(C)O)CC4)ncn3)c2c1` [Example K18], the IC50 is reported as 5.4 nM. Compound `CC(C)Oc1ccc2[nH]nc(-c3cc(N4CCn5nc(C6CC6)nc5C4)ncn3)c2c1` [Example K19] has an IC50 of 18.2 nM. Work on `CC(C)Oc1ccc2[nH]nc(-c3cc(N4CCC(F)(CO)CC4)ncn3)c2c1` [Example K20] yielded an IC50 of 6.3 nM. Work on `CC(C)Oc1ccc2[nH]nc(-c3cc(N4CCN(c5nncs5)CC4)ncn3)c2c1` [Example K21] yielded an IC50 of 17 nM. Work on `Cn1cc(-c2cc3c(-c4cc(N5CCn6ncnc6C5)ncn4)n[nH]c3cc2F)cn1` [Example L1] yielded an IC50 of 63.9 nM. Compound `Cn1cc(-c2cc3c(-c4cc(N5CC[C@H](CF)C5)ncn4)n[nH]c3cc2F)cn1` [Example L2] has an IC50 of 13.6 nM. For `Cn1cc(-c2cc3c(-c4cc(N5CCCC(F)(F)C5)ncn4)n[nH]c3cc2F)cn1` [Example L3], the IC50 was 23.4 nM. With `Cn1cc(-c2cc3c(-c4cc(N5CC[C@@H](CO)C5)ncn4)n[nH]c3cc2F)cn1` [Example L4] the IC50 was 36.8 nM. Work on `Cn1cc(-c2cc3c(-c4cc(N5CC[C@H](CO)C5)ncn4)n[nH]c3cc2F)cn1` [Example L5] yielded an IC50 of 37 nM. Compound `Cn1cc(-c2cc3c(-c4cc(N5CCC(F)(F)C5)ncn4)n[nH]c3cc2F)cn1` [Example L6] has an IC50 of 70.9 nM. `Cn1cc(-c2cc3c(-c4cc(N5CCCC(C)(O)C5)ncn4)n[nH]c3cc2F)cn1` (stereo not shown) [Example L7] gave an IC50 of 67.5 nM. With `Cn1cc(-c2cc3c(-c4cc(N5CC[S+]([O-])CC5)ncn4)n[nH]c3cc2F)cn1` [Example L8] the IC50 was 131 nM. With `CN1CCN(c2cc(-c3n[nH]c4cc(F)c(-c5cnn(C)c5)cc34)ncn2)CC1=O` [Example L9] the IC50 was 37.7 nM. For `Cn1cc(-c2cc3c(-c4cc(N5CCc6oncc6C5)ncn4)n[nH]c3cc2F)cn1` [Example L10], the IC50 was 453 nM. `Cn1cc(-c2cc3c(-c4cc(N5CCN(C6CC6)CC5)ncn4)n[nH]c3cc2F)cn1` [Example L11] was tested, and the IC50 was 17.7 nM. For `C[C@H]1CN(c2cc(-c3n[nH]c4cc(F)c(-c5cnn(C)c5)cc34)ncn2)CCO1` [Example L12], the IC50 was 26.5 nM. `C[C@@H]1CN(c2cc(-c3n[nH]c4cc(F)c(-c5cnn(C)c5)cc34)ncn2)CCO1` [Example L13] showed an IC50 of 20.5 nM. `Cn1cc(-c2cc3c(-c4cc(N5C[C@@H](F)[C@H](F)C5)ncn4)n[nH]c3cc2F)cn1` [Example L14] showed an IC50 of 29.9 nM. For `Cn1cc(-c2cc3c(-c4cc(N5CCCC6(CCO6)C5)ncn4)n[nH]c3cc2F)cn1` (stereo not shown) [Example L15], the IC50 was 398 nM. `Cn1cc(-c2cc3c(-c4cc(N5CCC(n6cccn6)C5)ncn4)n[nH]c3cc2F)cn1` (stereo not shown) [Example L16] showed an IC50 of 73.5 nM. Compound `Cc1nc2c(o1)CCN(c1cc(-c3n[nH]c4cc(F)c(-c5cnn(C)c5)cc34)ncn1)C2` [Example L17] has an IC50 of 53.4 nM. For `Cn1cc(-c2cc3c(-c4cc(N5CCN6C(=O)OCC6C5)ncn4)n[nH]c3cc2F)cn1` (stereo not shown) [Example L18], the IC50 was 64.2 nM. Work on `Cn1cc(-c2cc3c(-c4cc(N5CCC(F)(C#N)CC5)ncn4)n[nH]c3cc2F)cn1` [Example L19] yielded an IC50 of 39.4 nM. `CO[C@@H]1CN(c2cc(-c3n[nH]c4cc(F)c(-c5cnn(C)c5)cc34)ncn2)C[C@H]1O` [Example L20] was tested, and the IC50 was 36.2 nM. `CN(C)[C@@H]1CN(c2cc(-c3n[nH]c4cc(F)c(-c5cnn(C)c5)cc34)ncn2)C[C@H]1O` [Example L21] showed an IC50 of 67.1 nM. `Cn1cc(-c2cc3c(-c4cc(N5CCS(=O)(=O)CC5)ncn4)n[nH]c3cc2F)cn1` [Example L22] gave an IC50 of 146 nM. In the case of `Cn1cc(-c2cc3c(-c4cc(N5CCC(F)(CO)CC5)ncn4)n[nH]c3cc2F)cn1` [Example L23], the IC50 is reported as 15.3 nM. Compound `CN(C)[C@@H]1CCN(c2cc(-c3n[nH]c4cc(F)c(-c5cnn(C)c5)cc34)ncn2)C1` [Example L24] has an IC50 of 58 nM. Work on `Cn1cc(-c2cc3c(-c4cc(N5CCN(CCCO)CC5)ncn4)n[nH]c3cc2F)cn1` [Example L25] yielded an IC50 of 12.6 nM. `Cn1cc(-c2cc3c(-c4cc(N5CCc6nccnc6C5)ncn4)n[nH]c3cc2F)cn1` [Example L26] was tested, and the IC50 was 11.1 nM. For `CO[C@@H]1CCN(c2cc(-c3n[nH]c4ccc(-c5cnn(C)c5)cc34)ncn2)C1` [Example M1], the IC50 was 4 nM. For `Cn1cc(-c2ccc3[nH]nc(-c4cc(N5CCCC(F)(F)C5)ncn4)c3c2)cn1` [Example M2], the IC50 was 2.2 nM. Compound `Cn1cc(-c2ccc3[nH]nc(-c4cc(N5CCn6ncnc6C5)ncn4)c3c2)cn1` [Example M3] has an IC50 of 8.5 nM. `Cn1cc(-c2ccc3[nH]nc(-c4cc(N5CC[C@@H](CF)C5)ncn4)c3c2)cn1` [Example M4] gave an IC50 of 2.3 nM. `Cn1cc(-c2ccc3[nH]nc(-c4cc(N5CC[C@H](CO)C5)ncn4)c3c2)cn1` [Example M5] showed an IC50 of 2.5 nM. In the case of `CC(O)C1CCN(c2cc(-c3n[nH]c4ccc(-c5cnn(C)c5)cc34)ncn2)C1` (stereo not shown) [Example M6], the IC50 is reported as 2.3 nM. `Cn1cc(-c2ccc3[nH]nc(-c4cc(N5CC[C@@H](CO)C5)ncn4)c3c2)cn1` [Example M7] gave an IC50 of 2.9 nM. Work on `Cn1cc(-c2ccc3[nH]nc(-c4cc(N5CCCC(C)(O)C5)ncn4)c3c2)cn1` (stereo not shown) [Example M8] yielded an IC50 of 7.9 nM. `C[C@@H]1CN(c2cc(-c3n[nH]c4ccc(-c5cnn(C)c5)cc34)ncn2)CCO1` [Example M9] was tested, and the IC50 was 1.9 nM. Compound `CO[C@H]1CCN(c2cc(-c3n[nH]c4ccc(-c5cnn(C)c5)cc34)ncn2)C1` [Example M10] has an IC50 of 2.6 nM. For `Cn1cc(-c2ccc3[nH]nc(-c4cc(N5CC[S+]([O-])CC5)ncn4)c3c2)cn1` [Example M11], the IC50 was 26.8 nM.

Reference: patent US9416126B2, “Compounds inhibiting leucine-rich repeat kinase enzyme activity” (Merck Sharp & Dohme Corp., priority 2013, dated 2016)
